According to US20220290111A1, “NUCLEIC ACIDS, PROTEINS AND PROCESSES FOR PRODUCING AMIDES” (Leibniz-Institut für Pflanzenbiochemie, priority 2019, published 2022):
Blank lines part the entries; values can stand above or below the molecule they belong to.

Experiments:
Type in all cases: biochemical, Piper nigrum
PipSyn1 [1] = assay: in vitro enzyme assay of amide formation from CoA-ester and amine, PipSyn1; details: 100% = 2 nkat/mg PipSyn2 with piperoyl-CoA and piperidine, UV quantification; for relative activity, 3,4-methylenedioxycinnamoyl-CoA: CoA-ester 3,4-methylenedioxycinnamoyl-CoA; for relative activity, benzoyl-CoA: CoA-ester benzoyl-CoA; for relative activity, piperoyl-CoA: CoA-ester piperoyl-CoA
Experimental: Standard assays are routine for a person of average skill in the art.
(§1) A standard enzyme assay contains:
(§2) 10 μl enzyme solution in 30 mM Tris/HCl buffer pH 8.0 (10% glycerol, 1 mM DTT)
(§3) 1 μg-5 μg protein, amount determined according to Bradford
(§4) 10 μl piperidine, 100 mM (in water) 10 μl 5 mM DTT in water 10 μl piperoyl-CoA (PipCoA) 2.5 mM in 25% DMSO/75% water • All reagents (except PipCoA) were mixed in Eppendorf tubes and incubated in a standard (Eppendorf) incubator set at 30° C. Reagents were pre-equilibrated for 1 min to this temperature. • Assay start: addition of 10 μl PipCoA 2.5 mM in 25% DMSO/75% water to a final concentration of 500 μM PipCoA. • Assay stop after 5 min addition of 10 μl stop solution such as 1% formic acid/50% acetonitrile
(§5) Mix by vortex, incubate on ice for 5 minutes and centrifugation for 1 min at 20,000 g to precipitate any debris or insoluble material e.g. residual protein.
(§6) Remove 50 μl of supernatant for analysis of products (amides) by LC-MS. Injected to an RP-HPLC column are 10 μl (out of 50 μl). • Product formation is recorded via UV/PDA (photodiode array) detector and LC-MS and simultaneously. • Identification of piperine was achieved by use of a commercial standard and by LC-MS detection of calculated product masses at m/z 286 and UV-detection at 340 nm. • Quantification of product formation was achieved by a standard graph of piperine from 0.1-100 μM (commercial standard, Sigma) and recorded and calculated intensities of mass (peak area) and/or UV-peak area. • Identification and separation of piperine was according to a corresponding standard and a mass signal of m/z 286.1 in pos. mode and its corresponding absorbance at λmax-340 nm.
(§7) Quantification was performed based on a commercially available piperine standard. The peak area of the peak due to piperine in the LC trace was determined. Peaks due to possible isomerization products of piperine were neglected for the determination of enzyme activity of piperine formation. […] Before calculating enzyme activity in terms of nkat (nmole of piperine formed per second), the amount of non-enzymatically formed piperine is subtracted from the amount determined in the presence of protein.
(§8) Protein amounts were determined photometrically by the Bradford assay of combining a defined volume, preferentially 10 μl of the (partly) purified PipSyn1 and PipSyn2 enzyme and 990 μl of Bradford reagent, and calculating the resulting absorbance at λ=595 nm based on a standard curve made with a serial dilution of commercially available Bovine Serum Albumin fraction V in water.
(§9) This Example provides in Table 1 substrates which were tested for enzyme activity with both enzymes. Activity data were calculated from the UV-(PDA) area in the range of 320-370 nm. The data are supported by LC-MS measurements of corresponding m/z values recorded in positive ionization mode and based on calculated expected masses. Mass accuracy of Waters QDA-detector is +/−0.2 Dalton. Contrary to the procedure of Example 3, for the determination of the activity of the reaction of piperoyl-CoA and piperidine as substrates, the sum of all peaks in the LC trace due to species having calculated m/z values of the expected products was used for quantification of product, assuming the same ionization efficiency in positive ionization mode as in case of piperine for all molecule species.

recombinant PipSyn2 = assay: in vitro enzyme assay of amide formation from CoA-ester and amine, PipSyn2; details: for relative activity, piperoyl-CoA / relative activity, 3,4-methylenedioxycinnamoyl-CoA / relative activity, myristoyl-CoA / relative activity, hexanoyl-CoA: PipSyn2; for relative activity, piperoyl-CoA: CoA-ester piperoyl-CoA, 100% = 2 nkat/mg PipSyn2 with piperidine, assay as Example 3; for relative activity, piperoyl-CoA / relative activity, 3,4-methylenedioxycinnamoyl-CoA: UV quantification; for relative activity, 3,4-methylenedioxycinnamoyl-CoA: CoA-ester 3,4-methylenedioxycinnamoyl-CoA; for relative activity, 3,4-methylenedioxycinnamoyl-CoA / relative activity, myristoyl-CoA / relative activity, hexanoyl-CoA: 100% = 2 nkat/mg PipSyn2 with piperoyl-CoA and piperidine; for relative activity, myristoyl-CoA: CoA-ester myristoyl-CoA; for relative activity, myristoyl-CoA / relative activity, hexanoyl-CoA: quantification by mass detection; for relative activity, hexanoyl-CoA: CoA-ester hexanoyl-CoA
Experimental: Enzyme activity test with regard to piperine formation in case of PipSynthase 2.
as §1, §2, §3, §4, §5, §6, §7, §8, §9

PipSyn1 [2] = assay: in vitro enzyme assay of amide formation from CoA-ester and amine, PipSyn1; details: 100% = 2 nkat/mg PipSyn2 with piperoyl-CoA and piperidine, quantification by mass detection; for relative activity, myristoyl-CoA: CoA-ester myristoyl-CoA; for relative activity, hexanoyl-CoA: CoA-ester hexanoyl-CoA

Molecule: NCC1CCNCC1 [4-aminomethylpiperidine]
relative activity, 3,4-methylenedioxycinnamoyl-CoA (PipSyn1 [1]): 6%
relative activity, piperoyl-CoA (PipSyn1 [1]): 17%
relative activity, 3,4-methylenedioxycinnamoyl-CoA (recombinant PipSyn2): 7%
relative activity, piperoyl-CoA (recombinant PipSyn2): 36%

Molecule: NCCc1ccc(O)c(O)c1 [dopamine]
relative activity, 3,4-methylenedioxycinnamoyl-CoA (PipSyn1 [1]): 7%
relative activity, piperoyl-CoA (PipSyn1 [1]): 2%

Molecule: C1CCNCC1 [piperidine]
relative activity, 3,4-methylenedioxycinnamoyl-CoA (PipSyn1 [1]): 184%
relative activity, benzoyl-CoA (PipSyn1 [1]): 7%
relative activity, piperoyl-CoA (PipSyn1 [1]): 117%
relative activity, 3,4-methylenedioxycinnamoyl-CoA (recombinant PipSyn2): 38%
relative activity, hexanoyl-CoA (recombinant PipSyn2): 12%
relative activity, myristoyl-CoA (recombinant PipSyn2): 10%
relative activity, piperoyl-CoA (recombinant PipSyn2): 100%
relative activity, hexanoyl-CoA (PipSyn1 [2]): 23%
relative activity, myristoyl-CoA (PipSyn1 [2]): 10%

B1: PipSyn2: recombinant His-tagged piperine synthase from Piper nigrum, amino acid sequence SEQ ID NO: 4, expressed in E. coli (protein, listed as Piper nigrum)
chain: MAPSSQLEFNVVRKQPELLPPAEPTPFEWKELSDIDDQDGLRLHISGFFIYPPSTMSNVGRDNVARDIRLGLSKAMVFYYPLAGRIREGPNRKLSVECTGEGIMYCEADADVRLEQFGDIGALSMPFPFMDKVMFETVDDGILGTPLMYFQSTRFICGGIVIAGCYNHAIADGLGFYMFMAAAAQLARGAASPTPLPVWQRERLLSRVPPRVTFIHHEYIHDTPKTETANPLDNEPWPLHSIFFTRVDVAALRAQLPGHLRKSATSFEIISACLWRCRTAALRFAPDELSRLIIAVNARTKFGPPLPQGYYGNSIMLPMVVSEAGKLVLSGLGYAVELVIEAKGKVTEEYVKSVADYLVLNGRPHYVVTNTYLVSDLRQLVEMSKFDWGWGKPAYVGPADVGENAISFLATLKNGEEEGVVVPIRLPESAVGRFKSEVSKMVSFGCLEDVKPNRDGYLSRM
modifications: His tag
catalytic activity taken as 100% (recombinant PipSyn2; recombinant PipSyn2 with piperoyl-CoA and piperidine as substrates): 2 nkat/mg

Now from value to molecule:

relative activity, 3,4-methylenedioxycinnamoyl-CoA (PipSyn1 [1]): 104%
relative activity, benzoyl-CoA (PipSyn1 [1]): 2%
relative activity, piperoyl-CoA (PipSyn1 [1]): 26%
relative activity, piperoyl-CoA (recombinant PipSyn2): 2%
Molecule: NCCCCCCCN [1,7-diaminoheptane]

relative activity, 3,4-methylenedioxycinnamoyl-CoA (PipSyn1 [1]): 173%
relative activity, benzoyl-CoA (PipSyn1 [1]): 6%
relative activity, piperoyl-CoA (PipSyn1 [1]): 66%
relative activity, 3,4-methylenedioxycinnamoyl-CoA (recombinant PipSyn2): 2%
relative activity, myristoyl-CoA (recombinant PipSyn2): 15%
relative activity, piperoyl-CoA (recombinant PipSyn2): 16%
relative activity, myristoyl-CoA (PipSyn1 [2]): 20%
Molecule: CC(C)CN [isobutylamine]

relative activity, 3,4-methylenedioxycinnamoyl-CoA (PipSyn1 [1]): 186%
relative activity, benzoyl-CoA (PipSyn1 [1]): 1%
relative activity, piperoyl-CoA (PipSyn1 [1]): 77%
relative activity, 3,4-methylenedioxycinnamoyl-CoA (recombinant PipSyn2): 3%
relative activity, hexanoyl-CoA (recombinant PipSyn2): 60%
relative activity, myristoyl-CoA (recombinant PipSyn2): <1%
relative activity, piperoyl-CoA (recombinant PipSyn2): 34%
relative activity, hexanoyl-CoA (PipSyn1 [2]): 300%
relative activity, myristoyl-CoA (PipSyn1 [2]): 3%
Molecule: C1CCNC1 [pyrrolidine]

relative activity, 3,4-methylenedioxycinnamoyl-CoA (PipSyn1 [1]): 10%
relative activity, piperoyl-CoA (PipSyn1 [1]): 2%
relative activity, hexanoyl-CoA (recombinant PipSyn2): <1%
relative activity, hexanoyl-CoA (PipSyn1 [2]): 2%
Molecule: COc1cc(CN)ccc1O [vanillylamine]
